Measured values as given in PubChem BioAssay (NCI).
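Interpolation was linear, between the two tested concentrations surrounding the appropriate level; five concentrations were tested over 48 hours in 96-well plates. TGI denotes the concentration required for complete inhibition of growth.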

Assays:
Experiment in all cases: NCI tumour cell line growth inhibition, 48 h
DMS 273 small cell lung = test system: DMS 273 small cell lung
HOP-18 NSCLC = test system: HOP-18 NSCLC
SNB-78 CNS = test system: SNB-78 CNS
RXF-631 renal = test system: RXF-631 renal
DMS 114 small cell lung = test system: DMS 114 small cell lung
XF 498 CNS = test system: XF 498 CNS
SN12K1 renal = test system: SN12K1 renal
P388 leukemia = test system: P388 leukemia
P388/ADR leukemia = test system: P388/ADR leukemia

Structure (SMILES)	TGI (DMS 273 small cell lung) [µM]	TGI (HOP-18 NSCLC) [µM]	TGI (SNB-78 CNS) [µM]	TGI (RXF-631 renal) [µM]	TGI (DMS 114 small cell lung) [µM]	TGI (XF 498 CNS) [µM]	TGI (SN12K1 renal) [µM]	TGI (P388 leukemia) [µM]	TGI (P388/ADR leukemia) [µM]
O=C(c1ccc(Cl)cc1)N(C(=S)N1CCN(c2ccccc2)CC1)c1ccccc1	> 100	> 100	> 100						
Cc1ccc(S(=O)(=O)OCC23CCC(C4CC42)C2CC23)cc1 (stereo not drawn)	> 100	> 100		> 100	> 100				
Cc1ccc(C2=Nc3ccccc3NC(=O)C2)cc1	> 100	> 100	> 100		> 100	93.4			
CCN(CC)C(=S)N/N=C(\C)c1ccccc1O	> 100	86.5	> 100	> 100	> 100				
CCCN(CCC)C(=O)Cc1c2n(c3ccccc13)Cc1ccccc1-2	> 100	> 100	> 100		> 100	> 100			
CNS(=O)(=O)NN(C)S(=O)(=O)c1ccc(Br)cc1	> 100			> 100	> 100	> 100			
CC(=O)/C=C/c1c[nH]c(=O)[nH]c1=O	324		756		585	151	341	718	893
